# Tests used:
# Assay in all cases: Antimicrobial activity, diffusion agar technique
# Format in all cases: cell-based
# Conditions in all cases: well diameter 6.0 mm, 100 μl
# [1] = tested on: Geotricum candidum (RCMB 05097)
# Procedure: (§1) The antimicrobial effect of the katononic acid nanosheets was evaluated against gram positive bacteria, gram negative bacteria, and fungi. The diffusion agar technique was used with a well diameter of 6.0 mm and 100 μl of katononic acid nanosheets.
# [2] = tested on: Candida albicans (RCMB 05036)
# Procedure: as §1
# [3] = tested on: Absidia corymbffera (RCMB 02564)
# Procedure: as §1
# [4] = tested on: Staphylococcus aureus (RCMB 010027)
# Procedure: as §1
# [5] = tested on: Streptococcus pyogenes (RCMB 010015)
# Procedure: as §1
# [6] = tested on: Staphylococcus epidermidis (RCMB 010024)
# Procedure: as §1
# [7] = tested on: Salmonella enteritidis (RCMB 010084)
# Procedure: as §1
# [8] = tested on: Klebsiella pneumoniae (RCMB 0010093)
# Procedure: as §1
# [9] = tested on: Proteous vulgaris (RCMB 010085)
# Procedure: as §1
molecule,measurement,setting,value
C[C@@H]1[C@H](O)[C@@H](C)/C=C/C=C/C=C/C=C/C=C/C=C/C=C/[C@H](O[C@@H]2O[C@H](C)[C@@H](O)[C@H](N)[C@@H]2O)C[C@@H]2O[C@](O)(C[C@@H](O)C[C@@H](O)[C@H](O)CC[C@@H](O)C[C@@H](O)CC(=O)O[C@H]1C)C[C@H](O)[C@H]2C(=O)O [Amphotericin B],Zone of Inhibition (±SD),[1],27.0 ± 0.20
same,Zone of Inhibition (±SD),[2],25.7 ± 0.10
same,Zone of Inhibition (±SD),[3],23.0 ± 0.10
CC1(C)S[C@@H]2[C@H](NC(=O)[C@H](N)c3ccccc3)C(=O)N2[C@H]1C(=O)O [Ampicillin],Zone of Inhibition (±SD),[4],27.3 ± 0.14
same,Zone of Inhibition (±SD),[5],26.3 ± 0.34
same,Zone of Inhibition (±SD),[6],25.0 ± 0.18
Gentamycin,Zone of Inhibition (±SD),[7],25.2 ± 0.18
same,Zone of Inhibition (±SD),[8],26.4 ± 0.15
same,Zone of Inhibition (±SD),[9],23.4 ± 0.30
